{"source": "patent US20260200831A1", "about": "“Plant Oil Ceramides, Synthesis Method and Use Thereof” (SHENZHEN DIKEMAN BIOTECHNOLOGY CO., LTD., priority 2022, published 2026)", "key": {"[1]": {"assay": "Cell migration (scratch) assay, skin barrier repair", "assay_type": "cell-based", "details": "sample 100 mg/L", "method": "Principle: When cells grow to form a confluent monolayer, a scratch tool is used to create a cell-free blank area on the confluent monolayer cells, the cells in the blank area are removed by a mechanical force, and through a period of incubation, the migration of the cells to the cell-free area is observed, and the migration ability of the cells is reflected by measuring the migration distance of the cells.\n• 1. Marking the culture plate. Use a marker pen and ruler to draw evenly spaced horizontal lines (approximately 0.5-1 cm apart) on the back of a 6-well plate, ensuring at least 5 lines cross each well. Avoid thick lines. • 2. Cell seeding. Seed approximately 5×10^5 cells per well (the number varies for varied cells, adjusting based on cell growth rate), and the principle of inoculation is to achieve 100% confluence overnight. • 3. Cell scratching. On the following day, use a pipette tip perpendicular to the cell layer to create scratches along the pre-marked lines on the back of the plate (It is best to use the same tip for all wells). • 4. Cell washing. After the scratching was completed, rinse the cells three times with sterile PBS to remove dislodged cells, leaving a clear visible scratch gap, and then replace with fresh serum-free medium. • 5. Cell culturing and observation. […]"}, "[2]": {"assay": "DPPH free radical scavenging assay", "method": "DPPH is 1,1-diphenyl-2-picrylhydrazyl and can be used in antioxidant experiments.\nSamples at corresponding concentrations (50, 100, 200, 400, 800 mg/L) were mixed with […] DPPH and absolute ethanol at a 1:1 volume ratio, respectively. DPPH and absolute ethanol were mixed at a 1:1 volume ratio, reacted at room temperature in the dark for 30 min, and the absorbance was measured at 517 nm. The absorbance of the sample mixed with DPPH is denoted as A1, the absorbance of the sample mixed with absolute ethanol is denoted as A2, and the absorbance of DPPH mixed with absolute ethanol is denoted as A3. The DPPH scavenging rate of the sample is calculated as [1−(A1−A2)/A3]×100%."}}, "data": [{"smiles": "CCCCCCCC/C=C\\CCCCCCCC(=O)N[C@@H](CO)[C@H](O)[C@H](O)CCCCCCCCCCCCCC", "note": "[ceramide 3B, oleic acid ceramide]", "values": [{"measurement": "healing rate after 24 h", "setting": "[1]", "result": 59.32, "unit": "%"}, {"measurement": "DPPH free radical scavenging rate", "setting": "[2]; 50 mg/L", "result": 7.76, "unit": "%"}, {"measurement": "DPPH free radical scavenging rate", "setting": "[2]; 100 mg/L", "result": 12.82, "unit": "%"}, {"measurement": "DPPH free radical scavenging rate", "setting": "[2]; 200 mg/L", "result": 24.10, "unit": "%"}, {"measurement": "DPPH free radical scavenging rate", "setting": "[2]; 400 mg/L", "result": 29.60, "unit": "%"}, {"measurement": "DPPH free radical scavenging rate", "setting": "[2]; 800 mg/L", "result": 33.16, "unit": "%"}]}]}
